From patent US9511053B2, “Nitric oxide scavengers” (Baxter International Inc., priority 2004, dated 2016) come the findings set out here.

A short description of series [1]: Solubility in phosphate buffer. It is filed as physicochemical. As for the experimental part: Synthesis of 1,3-dihydroxy-2-(2-thienyl)-4,4,5,5,-tetramethylimidazolidine (compound 4 where R is compound 4c) was conducted as shown on FIG. 1. Anhydro adduct (compound 3 where R is compound 4c) was synthesized from treatment of 2,3-bis-(hydroxyamino)-2,3-dimetylbutansulfate (compound 1 where R is compound 4c) and 2-thiophenecarboxaldehyde (compound 2 where R is compound 4c) in water and methanol where compound 3 was a stable white solid insoluble in water. Compound 3 was oxidized by lead oxide in chloroform to form blue crystals (compound 4 where R is 4c). […] The nitronyl nitroxide monoradicals (compound 4 where R is compound 4a or 4b) have been tested for nitric oxide scavenge activity as described below in greater detail.

A short description of series [2]: Stability of the nitronyl nitroxide monoradical on isolation. It is filed as physicochemical. The conditions noted are these: after oxidation with manganese dioxide in ether and column chromatography. Here is the method: Synthesis of 1,3-Dihydroxy-2-(2,4-dihydroxyphenyl)-4,4,5,5,-tetramethylimidazolidine (compound 4 where R is compound 4a) was conducted as shown in FIG. 1. Anhydro adduct compound 3 where R is compound 4a was synthesized from treatment of 2,3-bis-(hydroxyamino)-2,3-dimetylbutansulfate (compound 1 where R is compound 4a) and 2,4-dihydroxybenzaldehyde (compound 2 where R is compound 4a) in a mixture of water and methanol. The nitronyl nitroxide monoradical (compound 4 where R is compound 4a) was obtained after oxidation of compound 3 (where R is compound 4a) with manganese dioxide in ether. Compound 4 was very unstable where only 2.5 mg of compound 4 was obtained after column chromatography.

The nature of series [3]: NO scavenger assessment: direct measurement of nitric oxide with NO-selective microelectrode. It is filed as biochemical. The conditions noted are these: anaerobic, room temperature, phosphate buffer 50 mM pH 7.4. Here is the method:
The nitric oxide (NO) scavenging activity of various compounds was determined by the direct measurement of nitric oxide. Using a NO-selective microelectrode (World Precision Instruments, ISO-NO Mark II) the nitric oxide concentration was monitored upon the addition of the test compound. The reaction rate constant was calculated for each compound. Test compounds were added in molar excess, and therefore pseudo first-order reaction kinetics were observed. The rate constant (ln ks) for each compound was calculated. Reactions were performed under anaerobic conditions at room temperature, in phosphate buffer (50 mM, pH 7.4).

Series [4] relates to anesthetized rats treated with LPS to induce hypotension. As to the kind of experiment: Hydroxocobalamin animal study: MAP and HR of anesthetized rats treated with LPS to induce hypotension. It is filed as in vivo, Sprague-Dawley rats. As for the experimental part:
Applicants have conducted a study to assess the effect of hydroxocobalamin on the mean arterial pressure (MAP) and heart rate (HR) of anesthetized rats that had been treated with LPS to induce hypotension as described in greater detail below.
Three male Sprague-Dawley rats were acutely instrumented with femoral arterial and venous catheters. Rats were initially anesthetized using a 60 mg/kg i.p. dose of Nembutal (sodium pentobarbital.) Each rat was then instrumented with one arterial catheter for blood pressure measurement, and two venous catheters for test article administration, and infusion of Nembutal (0.42 mL/kg/hr) for maintenance of surgical anesthesia. After placement of the catheters, rats were moved to plexiglass boxes to begin hemodynamic measurements. Baseline data were collected for 30 minutes prior to experimental manipulation in order to verify that all rats were properly anesthetized, and that baseline MAP and HR were within acceptable baseline ranges. Following baseline data collection, each rat received a 5 mg/kg intravenous dose of LPS at a rate of 1 mL/min. After achieving a sustained hypotension at approximately 60 minutes after the LPS infusion, one rat received a 6 mL/kg intravenous dose of hydroxocobalamin (14.5 mM in PBS) over a period of one hour. The remaining two rats each received a 4.57 mL/kg intravenous dose of saline over a period of one hour. MAP and HR measurements continued for 2 hours after hydroxocobalamin or saline infusion. Following LPS administration, all three rats received a continuous intravenous administration of Lactated Ringer's solution in order to prevent dehydration (2.4 mL/kg/hr). Due to a limited amount of hydroxocobalamin, it was only possible to dose one animal with this compound.

As to `CC1(C)N(O)C(c2ccc(O)cc2O)N(O)C1(C)C` [4a, 1,3-Dihydroxy-2-(2,4-dihydroxyphenyl)-4,4,5,5,-tetramethylimidazolidine], the “solubility in phosphate buffer” value in series [1] is “soluble in phosphate buffer”. For the same compound, in series [2], the stability result was “very unstable”.

On to `CC1(C)N([O])C(c2ccc(C(=O)O)cc2)=[N+]([O-])C1(C)C` [Carboxy-PTIO], for which the “Rate of NO Scavenging, ln ks” value in series [3] (Molar ratio scavenger to NO 28:1) is listed as 3.8; in series [3] (Molar ratio scavenger to NO 56:1), 3.9; in series [3] (Molar ratio scavenger to NO 91:1), 3.5; in series [3] (Molar ratio scavenger to NO 129:1) it was 3.4.

`CC1(C)N(O)C(c2ccncc2)N(O)C1(C)C` [NN-2, 1,3-Dihydroxy-2-(4-pyridyl)-4,4,5,5,-tetramethylimidazolidine]: the figures for the “Rate of NO Scavenging, ln ks” value in series [3] (Molar ratio scavenger to NO 42:1) and in series [3] (Molar ratio scavenger to NO 111:1) were 3.7 and 3.4, respectively. For the same compound, the “solubility in phosphate buffer” value in series [1] is listed as “soluble in phosphate buffer”.

Turning to `CC1(C)N(O)C(c2cccs2)N(O)C1(C)C` [NN-3, 1,3-Dihydroxy-2-(2-thienyl)-4,4,5,5,-tetramethylimidazolidine], the “Rate of NO Scavenging, ln ks” value in series [3] (Molar ratio scavenger to NO 71:1) and in series [3] (Molar ratio scavenger to NO 126:1) was 2.8 throughout. Also, in series [1], the “solubility in phosphate buffer” value is reported as “soluble in phosphate buffer”.

For `C/C1=C2/[N-][C@H]([C@H](CC(N)=O)[C@@]2(C)CCC(=O)NC[C@@H](C)OP(=O)([O-])OC2C(O)[C@@H](n3cnc4cc(C)c(C)cc43)O[C@@H]2CO)[C@]2(C)N=C(/C(C)=C3N=C(/C=C4N=C1[C@@H](CCC(N)=O)C\4(C)C)[C@@H](CCC(N)=O)[C@]\3(C)CC(N)=O)[C@@H](CCC(N)=O)[C@]2(C)CC(N)=O.CC(=O)[O-].[Co+3]` (some centres unmarked) [Vitamin B12a (acetate)], the “Rate of NO Scavenging, ln ks” value was determined as 3.7 in series [3] (Molar ratio scavenger to NO 33:1), 3.4 in series [3] (Molar ratio scavenger to NO 47:1), 3.7 in series [3] (Molar ratio scavenger to NO 142:1) and 3.1 in series [3] (Molar ratio scavenger to NO 277:1).

On to `C/C1=C2/[N-][C@H]([C@H](CC(N)=O)[C@@]2(C)CCC(=O)NC[C@@H](C)OP(=O)([O-])O[C@H]2[C@@H](O)[C@@H](n3cnc4cc(C)c(C)cc43)O[C@@H]2CO)[C@]2(C)N=C(/C(C)=C3N=C(/C=C4N=C1[C@@H](CCC(N)=O)C\4(C)C)[C@@H](CCC(N)=O)[C@]\3(C)CC(N)=O)[C@@H](CCC(N)=O)[C@]2(C)CC(N)=O.[Co+3].[OH-]` [hydroxocobalamin], for which the “MAP below baseline levels” value in series [4] (60-180 minutes post-LPS (5 mg/kg i.v.), 6 mL/kg i.v. of 14.5 mM in PBS over one hour from 60 min post-LPS, one rat) is 10-20 mmHg. Moreover, the survival result in series [4] (LPS 5 mg/kg i.v., 6 mL/kg i.v. of 14.5 mM in PBS over one hour, one rat, both saline rats died) was “survived the entire experiment”. In addition, the “effect on HR and MAP (in words)” value in series [4] (anesthetized rat with LPS-induced hypotension, summary) was “increased HR and allowed MAP to be maintained”. For the same compound, the “HR above baseline levels” value in series [4] (from 60 minutes post-LPS infusion, 6 mL/kg i.v. of 14.5 mM in PBS over one hour, one rat) was “approximately 140 bpm”.
